Source: patent publication US20020192178A1, “Leguminous extract heavy-metal-scavenging anti-pollution agent” (L'OREAL, priority 2001, published 2002)
pIC50: −log10 of the molar value.

Tested on: immortalized human keratinocytes (DK7-NR)
Test: Protective effect against cadmium cytotoxicity, Neutral Red incorporation test
Assay type: cell-based
Conditions: cadmium chloride alone, 0% extract of maize, 24 hours; read-out: IC50 (concentration of CdCl2 inducing a 50% decrease in viability)
Protocol: Heavy metals such as cadmium, nickel, lead, mercury, etc. can cause cytotoxicity on the cells of various organs including the skin. The cytotoxic effect of cadmium on human keratinocytes in culture was evaluated by a technique for measuring the cell viability: the Neutral Red incorporation test (Culture Methods. 1984, 9, 7-9).
The study was performed on a monolayer culture of immortalized human keratinocytes (DK7-NR) by the Nestle research center. The cells are inoculated on D-3 in 96-well culture dishes at a rate of 25 000 cells/cm^2 in 100 µl of culture medium (medium defined without calf serum, NR2, Biofluids). The incubations are performed in an incubator at 37° C. in humid atmosphere enriched with 5% CO2.
The cells are treated [lacuna] 24 hours with increasing concentrations (0, 10, 25, 50, 75, 100, 150 and 200 μM) of cadmium chloride (CdC12) alone, so as to determine its cytotoxicity. In parallel, a treatment is performed under the same conditions, but in the presence of the extract of maize (Phytovityl® at 0.5% and 1%, non-cytotoxic concentrations for the cells). The incubations are performed in an incubator at 37° C., 5% CO2 in a humid atmosphere.
At the end of the contact period, the cell viability is determined by means of a Neutral Red (POS 55/006) incorporation test, with spectrophotometric reading at 500 nm. […]

SMILES: [Cl][Cd][Cl] [cadmium chloride]
- pIC50: 4.42
